Experimental data reported in US12173322B2, “Genome-edited induced pluripotent stem cells, and cells derived therefrom, and uses thereof” (priority 2020, dated 2024).

T1: ASIC1a (Homo sapiens, UniProt P78348)
T1 sequence (P78348 1-528): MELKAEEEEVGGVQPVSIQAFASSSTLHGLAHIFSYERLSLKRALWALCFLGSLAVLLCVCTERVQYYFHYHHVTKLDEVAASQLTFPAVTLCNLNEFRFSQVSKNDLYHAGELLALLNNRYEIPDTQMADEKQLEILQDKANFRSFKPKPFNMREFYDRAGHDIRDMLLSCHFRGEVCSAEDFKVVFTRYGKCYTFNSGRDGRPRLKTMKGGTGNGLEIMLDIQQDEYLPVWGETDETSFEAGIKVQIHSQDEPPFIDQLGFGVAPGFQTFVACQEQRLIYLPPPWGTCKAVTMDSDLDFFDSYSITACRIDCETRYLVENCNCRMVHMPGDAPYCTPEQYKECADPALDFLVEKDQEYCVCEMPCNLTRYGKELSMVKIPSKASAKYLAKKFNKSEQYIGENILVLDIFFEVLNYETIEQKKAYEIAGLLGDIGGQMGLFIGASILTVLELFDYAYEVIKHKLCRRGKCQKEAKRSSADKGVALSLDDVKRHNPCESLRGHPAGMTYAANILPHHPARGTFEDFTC


Assays:
[1] = system: Langendorff-perfused isolated mouse hearts; experiment: IRI in Langendorff-perfused isolated mouse hearts
Protocol: IRI in Langendorff-perfused mouse hearts. […] Mice (12-14 weeks) were anesthetized via an intraperitoneal injection of 10 mg/mL ketamine and 1.6 mg/mL xylazil. The heart was excised via thoracotomy and the aorta cannulated. […] Temperature was continuously measured with thermocouple needle microprobes (SDR Scientific) and maintained at 37° C. with circulating water baths. Contractile function was measured via a fluid-filled balloon inserted in the left ventricle and connected to a pressure transducer (ADInstruments Pty Ltd.). Coronary flow was measured with an in-line Doppler flow probe positioned above the aortic cannulae (Transonic Systems Inc.). All functional data were recorded on a four-channel MacLab system (ADInstruments Pty Ltd.). Following 15-30 min of equilibration, hearts were switched to ventricular pacing at 420 beats/min (BPM) using a SD9 stimulator (Grass Instruments, Inc.). Baseline measurements were made for 10-20 min followed by 25 min of global normothermic ischemia and 45 min of reperfusion. Pacing was stopped during ischemia and resumed after 15 min of reperfusion. For peptide-treated experimental groups, 1 μM peptide solution was infused with a syringe pump (World Precision Instruments, LLC.) into the buffer, directly upstream of the cannula, at a rate of 1% of CF, for a final working concentration of 10 nM. Peptide was infused for 10 min prior to the onset of ischemia and during the first 15 min of reperfusion.

hiPSC-CMs [2] = experiment: hiPSC-CM calcium analysis (FLIPR Tetra); format: cell-based, human; conditions: any evaluated concentration (1 nM - 1 μM)
Protocol: hiPSC-CM calcium analysis. Cardiomyocytes were replated (2×10^4 per well) in 384-well plates (CellBIND black with clear bottom, Corning) and cultured for 7 days in RPMI+B27™. On the day of the experiment, the cells were loaded for 1.5 h at 37° C. with FLIPR calcium 4 dye (Molecular Devices) diluted in HBSS pH 7.4. After loading, the plate was transferred to a FLIPR Tetra fluorescent plate reader (Molecular Devices). Calcium transients were measured with excitation wavelengths at 470-495 nm and emission at 515-575 nm. For each plate, the camera gain and intensity were adjusted to optimize signal intensity. Data for each well were expressed as normalized arbitrary fluorescence units. All data were acquired at 0.5 s per read, with baseline measurements for 45 s followed by at least 100 s of data collection after each peptide addition. Peptide solutions (in HBSS pH 7.4) were added to each well to give a final concentration of 1 nM, 10 nM, 100 nM, or 1 μM. Calcium amplitude, maximum calcium, minimum calcium, and spontaneous beating rate were analysed using ScreenWorks software (Molecular Devices) and normalized to baseline measurements.
Replated hiPSC-CMs were loaded with a fluorescent calcium dye and calcium transients were recorded before and after peptide addition.

hiPSC-CMs [3] = experiment: In vitro acidosis injury of hiPSC-CMs, cell death (LDH); format: cell-based, human; conditions: for cell death: 20 nM overnight
Excerpt: In vitro ischemia-acidosis injury model with hiPSC-CMs. Differentiated cardiomyocytes were replated on either day 15 or day 17 of differentiation for in vitro ischemia/acidosis assays. At the time of replating, a subset of cells (˜500,000) was set aside for flow cytometry analysis of cardiomyocyte purity (see supplemental methods). For all experiments, only cell preparations with >80% sarcomeric α-actinin-positive cardiomyocytes were used. After re-plating, the cells were maintained for an additional 7 days in RPMI+B27™. To prepare media for ischemia/acidosis injury, 10×HBSS without sodium bicarbonate (Sigma) was diluted to 1× concentration in sterile tissue culture-grade water. Solutions were buffered with either 12 mM HEPES (for pH 7.4 media, Sigma Aldrich) or 12 mM MES (for pH <6.5, Sigma Aldrich) and the pH adjusted accordingly with 1 M NaOH. The medium was sterile filtered with 0.22 μm syringe filters (Millipore). […] For reperfusion experiments, the medium was replaced with HBSS pH 7.4 (with or without peptide) after overnight incubation and cultured for 1 h under normoxic conditions. […] For all cell culture experiments, percent cell death was calculated using low and high controls. For low control (LC), cardiomyocytes were cultured overnight in standard culture media (RPMI+B27™). For high control (HC), cells were cultured in RPMI+B27™ containing 1% Triton™ X-100 (Sigma-Aldrich).
To assess whether ASIC1a inhibition is cardioprotective in hiPSC-CMs, the inventors evaluated cell death in response to in vitro acidosis, induced by culturing hiPSC-CMs in Hank's […] (HBSS) with pH adjusted to pH 7.4, 6.0, or 5.0. […] To mimic ischemia/acidosis in vitro, hiPSC-CMs were incubated overnight in combined hypoxic (0.5% O2) and acidic (pH 5.0) conditions with or without peptide.

ASIC1a = target: T1, ASIC1a; conditions: read-out: IC50, inhibitor of ASIC1a; cited from earlier work
hiPSC-CMs [4] = experiment: In vitro ischemia/acidosis with reperfusion in hiPSC-CMs, cell death (LDH); format: cell-based, human; conditions: 10 nM; 18 h hypoxia (0.5% O2) pH 5.0, then 1 h pH 7.4 normoxia
Excerpt: In vitro ischemia-acidosis injury model with hiPSC-CMs. Differentiated cardiomyocytes were replated on either day 15 or day 17 of differentiation for in vitro ischemia/acidosis assays. At the time of replating, a subset of cells (˜500,000) was set aside for flow cytometry analysis of cardiomyocyte purity (see supplemental methods). For all experiments, only cell preparations with >80% sarcomeric α-actinin-positive cardiomyocytes were used. After re-plating, the cells were maintained for an additional 7 days in RPMI+B27™. To prepare media for ischemia/acidosis injury, 10×HBSS without sodium bicarbonate (Sigma) was diluted to 1× concentration in sterile tissue culture-grade water. Solutions were buffered with either 12 mM HEPES (for pH 7.4 media, Sigma Aldrich) or 12 mM MES (for pH <6.5, Sigma Aldrich) and the pH adjusted accordingly with 1 M NaOH. The medium was sterile filtered with 0.22 μm syringe filters (Millipore). […] For all cell culture experiments, percent cell death was calculated using low and high controls. […]
To assess whether ASIC1a inhibition is cardioprotective in hiPSC-CMs, the inventors evaluated cell death in response to in vitro acidosis, induced by culturing hiPSC-CMs in Hank's […] (HBSS) with pH adjusted to pH 7.4, 6.0, or 5.0. […]

Molecule	EDP ([1]; after 45 min reperfusion, 10 nM peptide)	reactive hyperaemia during early reperfusion (increased CF) ([1]; first 5 min of reperfusion)	baseline contractile function ([1]; first 10 min of peptide infusion prior to ischemia, 10 nM)	calcium amplitudes (hiPSC-CMs [2])	spontaneous beating rate (hiPSC-CMs [2])	cardioprotection against cell death (LDH) (hiPSC-CMs [3]; overnight at pH 5.0, even at concentrations as low as 1 nM)	IC50 (ASIC1a)	cell death (hiPSC-CMs [4])	cell death (hiPSC-CMs [3]; pH 6.0)	cell death (hiPSC-CMs [3]; pH 7.4)
PcTx1	33±8 mmHg	significant reactive hyperaemia	no effect	Neither Hi1a nor PcTx1 altered	Neither Hi1a nor PcTx1 altered	nearly complete cardioprotection	~1 nM	blocked	–	–
MitTx (protein) chain 1: QIRPAFCYEDPPFFQKCGAFVDSYYFNRSRITCVHFFYGQCDVNQNHFTTMSECNRVCHG chain 2: NLNQFRLMIKCTNDRVWADFVDYGCYCVARDSNTPVDDLDRCCQAQKQCYDEAVKVHGCKPLVMFYSFECRYLASDLDCSGNNTKCRNFVCNCDRTATLCILTATYNRNNHKIDPSRCQ	–	–	–	–	–	–	–	–	increased cell death	increased cell death
